In patent US20070219214A1, “Dual NK2/NK3-antagonists, pharmaceutical compositions comprising them, and processes for their preparation” (Solvay pharmaceuticals GmbH, priority 2006, published 2007):

Assays:
human NK3 receptor [1] = molecular target: T1, human NK3 receptor (Homo sapiens, UniProt P29371); assay: Binding potency of the test substances to NK3-receptors in vitro ([3H]-SR 142801 displacement); design: expressed in transfected cells; host or cells: CHO cells (membrane preparation); conditions: human NK3-receptor in CHO cell membranes, [3H]-SR 142801 (osanetant), average of at least three measurements
T1 sequence (P29371 1-465): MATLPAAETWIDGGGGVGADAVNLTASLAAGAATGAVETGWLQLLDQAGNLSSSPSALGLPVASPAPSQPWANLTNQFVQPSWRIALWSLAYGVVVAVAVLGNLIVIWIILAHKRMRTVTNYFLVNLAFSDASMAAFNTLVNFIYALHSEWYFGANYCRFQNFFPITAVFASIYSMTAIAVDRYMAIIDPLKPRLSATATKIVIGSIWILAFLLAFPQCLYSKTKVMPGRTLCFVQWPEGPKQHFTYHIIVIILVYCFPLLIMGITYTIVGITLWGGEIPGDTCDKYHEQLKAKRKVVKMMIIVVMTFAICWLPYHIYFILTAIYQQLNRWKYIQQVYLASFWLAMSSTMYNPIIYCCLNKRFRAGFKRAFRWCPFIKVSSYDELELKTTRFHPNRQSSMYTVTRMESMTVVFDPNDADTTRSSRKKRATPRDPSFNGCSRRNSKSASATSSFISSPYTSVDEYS
Method in brief: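 [3H]-osanetant displacement on membranes from CHO cells stably expressing the human receptor, with bound ligand separated by filtration and counted by scintillation. Nonspecific binding defined with 1 μmol/l unlabeled osanetant. IC50 converted to Ki by Cheng-Prusoff and reported as pKi, averaged over measurements.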

human NK2-receptor [2] = molecular target: T2, human NK2-receptor (Homo sapiens, UniProt P21452); assay: Functional cellular test, Ca2+ measurements using FLIPR for NK2 activity; conditions: for pA2 data for NK2: CHO cells, human NK2, FLIPR Ca2+, agonist NKA 10^-7 M;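 on all read-outs here: CHO cells stably expressing the human receptor, loaded with a calcium dye, antagonist inhibition of ligand-evoked intracellular calcium rise read as peak fluorescence change on FLIPR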
T2 sequence (P21452 1-398): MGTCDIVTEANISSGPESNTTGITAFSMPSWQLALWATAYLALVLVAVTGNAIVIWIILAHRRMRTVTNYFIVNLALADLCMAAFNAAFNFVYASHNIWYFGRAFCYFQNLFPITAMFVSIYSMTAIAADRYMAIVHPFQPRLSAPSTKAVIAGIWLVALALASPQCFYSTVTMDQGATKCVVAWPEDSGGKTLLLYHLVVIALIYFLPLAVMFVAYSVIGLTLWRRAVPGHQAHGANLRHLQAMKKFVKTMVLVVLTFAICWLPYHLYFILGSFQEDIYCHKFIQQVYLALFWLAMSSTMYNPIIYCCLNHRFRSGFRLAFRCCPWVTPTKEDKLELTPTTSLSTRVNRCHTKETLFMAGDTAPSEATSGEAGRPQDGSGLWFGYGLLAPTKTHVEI

human NK2-receptor [3] = molecular target: T2, human NK2-receptor; assay: Binding potency of the test substances to NK2-receptors in vitro ([3H]-SR 48968 displacement); design: expressed in transfected cells; host or cells: CHO cells (membrane preparation); conditions: human NK2-receptor in CHO cell membranes, [3H]-SR 48968 (saredutant), average of at least three measurements; for Ki: read-out: pKi, binding potency to NK2-receptors (converted)
Method in brief: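 Membranes from CHO cells stably expressing the receptor were incubated with [3H]-saredutant plus test compound, then filtered and counted by liquid scintillation. Nonspecific binding defined with 0.1 μmol/l unlabeled saredutant. IC50 from displacement converted to Ki via Cheng-Prusoff and reported as pKi, averaged over measurements.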

human NK1-receptor [4] = molecular target: T3, human NK1-receptor (Homo sapiens, UniProt P25103); assay: Functional cellular test, Ca2+ measurements using FLIPR for NK1 activity; format: cell-based; design: expressed in transfected cells; host or cells: CHO fibroblast cells; conditions: for Kb: read-out: pA2 data for NK1 (converted); for pA2 data for NK1: CHO cells, human NK1, FLIPR Ca2+, agonist substance P 10^-8 M
T3 sequence (P25103 whole entry): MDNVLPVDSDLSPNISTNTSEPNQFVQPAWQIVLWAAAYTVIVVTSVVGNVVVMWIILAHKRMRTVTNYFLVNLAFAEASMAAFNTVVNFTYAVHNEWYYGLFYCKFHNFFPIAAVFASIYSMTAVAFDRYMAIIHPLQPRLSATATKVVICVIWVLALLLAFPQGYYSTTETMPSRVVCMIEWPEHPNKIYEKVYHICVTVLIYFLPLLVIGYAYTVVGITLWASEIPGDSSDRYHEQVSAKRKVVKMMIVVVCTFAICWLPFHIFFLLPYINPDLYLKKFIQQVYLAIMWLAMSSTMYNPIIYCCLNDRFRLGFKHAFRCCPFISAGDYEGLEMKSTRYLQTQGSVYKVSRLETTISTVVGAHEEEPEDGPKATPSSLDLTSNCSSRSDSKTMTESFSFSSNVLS
Excerpt: The NK receptor is coupled to Gq.
All steps were done under sterile conditions.

human NK3 receptor [5] = molecular target: T1, human NK3 receptor; assay: Functional cellular test, Ca2+ measurements using aequorin for NK3 activity; format: cell-based; design: expressed in transfected cells; host or cells: cell line co-expressing mitochondrially targeted apoaequorin (CHO according to b76/b77); conditions: for Kb: read-out: pA2 data for NK3 (converted); for pA2 data for NK3: cell line with human NK3 receptor and apoaequorin, agonist senktide 5x10-8 M
human NK1-receptor [6] = molecular target: T3, human NK1-receptor; assay: Binding potency of the test substances to NK1-receptors in vitro ([3H]-Substance P displacement); conditions: human NK1-receptor in CHO cell membranes, average of at least three measurements; for Ki: read-out: pKi, binding potency to NK1-receptors (converted)
Procedure: 1. Determination of the Binding Potency of the Test Substances to NK1-Receptors in Vitro
The affinity of test compounds for NK1-receptors can be determined by measuring the ability of the test compound to displace a radiolabeled ligand from its specific binding site. The tests were performed at Solvay Pharmaceuticals, Weesp, The Netherlands.
Separation of bound radioactivity from free radioactivity was done by filtration through glass fiber filters (Packard GF/B) with several washings with ice-cold buffer solution. Bound radioactivity was measured with a liquid scintillation counter (total binding).
The inhibition constant (Ki) was calculated according to the Cheng-Prusoff equation, and listed as its negative logarithmic value (pKi). The pKi value describes the potency of a test compound to bind to a receptor.

NK1-receptor = molecular target: T4, NK1-receptor (Cavia porcellus, UniProt P30547); assay: NK1-receptor-antagonistic effectiveness in vivo, NKA-induced early hypotension in anaesthetised guinea pigs; conditions: guinea pig, NKA 200 pmol/animal i.v.; for ED50 iv after 1 min (cumulative), NK1 (early hypotension): intravenous administration
T4 construct: from tissue; host or cells: whole animal (Pirbright-White guinea pigs), in vivo
T4 sequence (P30547 whole entry): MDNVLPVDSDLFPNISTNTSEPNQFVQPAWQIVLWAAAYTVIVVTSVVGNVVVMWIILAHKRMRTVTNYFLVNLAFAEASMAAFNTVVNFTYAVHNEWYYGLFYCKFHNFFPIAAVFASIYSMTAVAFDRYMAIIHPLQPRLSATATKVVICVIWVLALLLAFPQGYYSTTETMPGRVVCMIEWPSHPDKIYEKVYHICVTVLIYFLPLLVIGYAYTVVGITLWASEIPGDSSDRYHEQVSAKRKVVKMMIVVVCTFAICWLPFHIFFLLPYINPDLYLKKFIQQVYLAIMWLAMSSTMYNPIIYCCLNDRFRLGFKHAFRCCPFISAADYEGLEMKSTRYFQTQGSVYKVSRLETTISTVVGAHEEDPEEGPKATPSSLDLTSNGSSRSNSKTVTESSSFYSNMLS
Excerpt: (§1) 10. Determination of the NK1- and NK2-Receptor-Antagonistic Effectiveness of the Test Substances In Vivo
(§2) The NK1- and NK2-antagonistic activities of the test substances were investigated in anaesthetised guinea pigs in each case after intravenous (=i.v.) and oral (=p.o.) administration in vivo. With the present test model it is possible to detect both NK2-antagonistic effects in three different organ systems (respiratory tracts, colon and circulation) and NK1-antagonistic effects (rapid drop in blood pressure) in an animal simultaneously.
(§3) Pirbright-White guinea pigs of a body weight of 500-700 g were anaesthetised with ketamine/xylazine (67/13 mg/kg subcutaneously, initial dose, further doses administered as required). The animals were provided with an intravenous catheter in order to administer the substance and an intra-arterial catheter to measure the blood pressure. The animals were artificially ventilated via a tracheal cannula and the respiratory pressure was recorded by means of a pressure transducer. A balloon was introduced into the distal colon of the animals for manometric recording of colon motility by means of a pressure transducer. Blood pressure, heart rate, respiratory pressure and colonic pressure were measured continuously for each animal and plotted on a recorder and by means of a digital data-processing system. […] The second phase of delayed hypotension (=phase of maximum hypotension after 2-5 min.) on the other hand is mediated via NK2-receptors, since they can be blocked by specific NK2-receptor antagonists.
(§4) These ED50 values obtained from cumulative dose effect curves are plotted in Table 13.

NK2-receptor = molecular target: T5, NK2-receptor (Cavia porcellus, UniProt Q64077); assay: NK2-receptor-antagonistic effectiveness in vivo, NKA-induced late hypotension, bronchoconstriction and colonic pressure in anaesthetised guinea pigs; conditions: guinea pig; for ED50 iv after 1 min (cumulative), NK2 (bronchoconstriction) / ED50 iv after 1 min (cumulative), NK2 (colonic motility) / ED50 iv after 1 min (cumulative), NK2 (late hypotension): intravenous administration
T5 construct: from tissue; host or cells: whole animal (Pirbright-White guinea pigs), in vivo
T5 sequence (Q64077 1-402): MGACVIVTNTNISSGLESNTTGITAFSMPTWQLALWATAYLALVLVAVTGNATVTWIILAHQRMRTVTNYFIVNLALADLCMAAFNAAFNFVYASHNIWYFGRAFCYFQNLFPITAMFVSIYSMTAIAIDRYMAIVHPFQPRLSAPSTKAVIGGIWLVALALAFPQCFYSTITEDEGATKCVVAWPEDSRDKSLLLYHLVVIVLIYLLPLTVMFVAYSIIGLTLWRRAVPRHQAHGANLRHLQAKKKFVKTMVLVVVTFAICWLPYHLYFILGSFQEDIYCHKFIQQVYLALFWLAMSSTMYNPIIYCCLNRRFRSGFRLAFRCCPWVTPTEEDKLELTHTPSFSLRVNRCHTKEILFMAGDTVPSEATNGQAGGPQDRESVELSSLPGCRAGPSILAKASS
Excerpt: as §1, §2, §3, §4

[7] = NKA 200 pmol/animal i.v., oral administration

Row | Kb (human NK2-receptor [2]) | Ki (human NK2-receptor [3]) | Kb (human NK1-receptor [4]) | Kb (human NK3 receptor [5]) | Ki (human NK1-receptor [6]) | pA2 data for NK2 (human NK2-receptor [2]) | ED50 iv after 1 min (cumulative), NK1 (early hypotension) (NK1-receptor) | ED50 iv after 1 min (cumulative), NK2 (bronchoconstriction) (NK2-receptor; NKA 200 pmol/animal i.v.) | ED50 iv after 1 min (cumulative), NK2 (colonic motility) (NK2-receptor; NKA 200 pmol/animal i.v.) | ED50 iv after 1 min (cumulative), NK2 (late hypotension) (NK2-receptor; NKA 200 pmol/animal i.v.) | pA2 data for NK3 (human NK3 receptor [5]) | Compound | further results
1 | 3.98 nM | 1.26 nM | 79.4 nM | 5.01 nM | 79.4 nM |  |  |  |  |  |  | CN(C)C(=O)C1(N2CCCCC2)CCN(CCC(CN(C)C(=O)c2cc(Cl)ccc2F)c2ccc(Cl)c(Cl)c2)CC1 (stereo not drawn) [compound 10] | Ki (human NK3 receptor [1]; read-out: pKi, binding potency to NK3-receptors (converted)): 10 nM
2 | 2 nM | 2 nM | 31.6 nM | 50.1 nM | 50.1 nM |  |  |  |  |  |  | CN(C[C@@H](CCN1CCC(C(=O)N2CCCC2)(N2CCCC2)CC1)c1ccc(Cl)c(Cl)c1)C(=O)c1ccccc1 [compound 103, N-{(2S)-2-(3,4-dichlorophenyl)-4-[4-pyrrolidin-1-yl-4-(pyrrolidin-1-ylcarbonyl)piperidin-1-yl]butyl}-N-methylbenzamide] | 
3 |  |  |  |  |  | 8.3 | >1.462 µmol/kg | 0.38 µmol/kg | 0.132 µmol/kg | 0.34 µmol/kg | 7.9 | CN(C)C(=O)C1(N2CCCCC2)CCN(CC[C@H](CN(C)C(=O)c2ccc(F)c(F)c2F)c2ccc(Cl)c(Cl)c2)CC1 [compound 16] | pKi, binding potency to NK3-receptors (human NK3 receptor [1]): 7.8; pKi, binding potency to NK2-receptors (human NK2-receptor [3]): 9.0
4 | 0.0794 nM | 2 nM | 31.6 nM | 100 nM | 25.1 nM |  |  |  |  |  |  | CCC(=O)N(CC1CC1)C1CCN(CC[C@H](CN(C)C(=O)c2ccccc2)c2ccc(Cl)c(Cl)c2)CC1 [compound 105, N-[(2S)-4-{4-[(cyclopropylmethyl)(Propionyl)-amino]piperidin-1-yl}-2-(3,4-dichlorophenyl)butyl]-N-methylbenzamide] | 
5 | 39.8 nM | 5.01 nM | 2 nM | 39.8 nM | 2 nM |  |  |  |  |  |  | CN(C[C@@H](CCN1CCC(C(=O)N2CCCC2)(N2CCCC2)CC1)c1ccc(Cl)c(Cl)c1)C(=O)c1cc(C#N)cc2ccccc12 [compound 102, 3-cyano-N-{(2S)-2-(3,4-dichlorophenyl)-4-[4-pyrrolidin-1-yl-4-(pyrrolidin-1-ylcarbonyl)piperidin-1-yl]butyl}-N-methyl-1-naphthamide] | 
6 |  |  |  |  |  | 8.6 | >1.462 µmol/kg | 0.058 µmol/kg | 0.053 µmol/kg | 0.108 µmol/kg | 8.0 | CN(C)C(=O)C1(N2CCCCC2)CCN(CC[C@H](CN(C)C(=O)c2cc(F)cc(F)c2)c2ccc(Cl)c(Cl)c2)CC1 [compound 9] | pKi, binding potency to NK3-receptors (human NK3 receptor [1]): 8.4; pA2 data for NK1 (human NK1-receptor [4]): 8.0; pKi, binding potency to NK1-receptors (human NK1-receptor [6]): 7.6
7 |  |  |  |  |  | 8.6 | >1.462 µmol/kg | 0.731 µmol/kg | 0.294 µmol/kg | 1.113 µmol/kg | 8.4 | CN(C)C(=O)C1(N2CCCCC2)CCN(CC[C@H](CN(C)C(=O)c2ccc(F)c(Cl)c2)c2ccc(Cl)c(Cl)c2)CC1 [compound 8] | ED50 AUC1-180 min oral, NK1 (early hypotension) (NK1-receptor; oral administration): >3.2 µmol/kg; pA2 data for NK1 (human NK1-receptor [4]): 7.1; ED50 AUC1-180 min oral, NK2 (bronchoconstriction) (NK2-receptor; [7]): >3.2 µmol/kg; ED50 AUC1-180 min oral, NK2 (colonic motility) (NK2-receptor; [7]): >3.2 µmol/kg; ED50 AUC1-180 min oral, NK2 (late hypotension) (NK2-receptor; [7]): >3.2 µmol/kg; oral activity on the NK2, in words (NK2-receptor; oral administration): active orally on the NK2; pKi, binding potency to NK1-receptors (human NK1-receptor [6]): 7.4
